Drawing on PubChem BioAssay (NCI), this text covers TGI for 15 compounds.

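Five compound concentrations were applied to cells in 96-well plates for 48 hours; endpoints were derived by simple linear interpolation of the resulting dose-response curve. TGI: total growth inhibition.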 A value given as a limit tells only on which side of the number the result lay.

Test systems include SW-620 colon; OVCAR-3 ovarian; KM12 colon; HT29 colon; OVCAR-8 ovarian; SF-295 CNS; NCI-H23 lung; LOX IMVI melanoma; HOP-92 NSCLC.
Holding throughout (experiment): growth of human tumour cells (NCI), 48 h

Regarding `O=c1c2ccccc2c2nc3ccccc3nc2n1C1CCCCC1`, the TGI in the test on SW-620 colon, with OVCAR-3 ovarian, in the test on KM12 colon, with HT29 colon, in the test with OVCAR-8 ovarian and in the test on SF-295 CNS was greater than 100 µM in each case. The compound further returned a TGI with NCI-H23 lung greater than 100 µM.
In the case of `O=C(NC1=NC2C=CC([N+](=O)[O-])=CC2S1)C(=O)Nn1c(=S)[nH]c2ccccc2c1=O` (configuration not stated), the TGI in the test with SW-620 colon, in the test on OVCAR-3 ovarian, in the test with KM12 colon, in the test with LOX IMVI melanoma, in the test with HT29 colon and in the test with HOP-92 NSCLC was greater than 100 µM each time. For the same compound, the TGI in the test with OVCAR-8 ovarian, with SF-295 CNS and in the test with NCI-H23 lung was greater than 100 µM each time.
Take `O=C1C(=O)C(Br)(Br)C(Br)=C1Br`: the TGI in the test on SW-620 colon turned out to be 31.9 µM; in the test with OVCAR-3 ovarian it was 29.1 µM; in the test on KM12 colon, 28.6 µM; with LOX IMVI melanoma it was 31.9 µM; with HT29 colon, 38.5 µM; in the test on HOP-92 NSCLC, 36.7 µM. For the same compound, the TGI with OVCAR-8 ovarian was 36.6 µM; in the test on SF-295 CNS it was greater than 100 µM.
As to `NC(=S)N/N=C1/C(=O)N(c2ccc(Cl)cc2Cl)C(=O)C(=O)C1c1nc2ccccc2s1` (configuration not stated), the TGI in the test with SW-620 colon, in the test with OVCAR-3 ovarian, in the test on KM12 colon, in the test with LOX IMVI melanoma, with HT29 colon and with HOP-92 NSCLC was greater than 100 µM throughout. Moreover, the TGI in the test on OVCAR-8 ovarian, in the test with SF-295 CNS and with NCI-H23 lung was greater than 100 µM in each case.
As for `CC1=C(C(=O)Nc2ccc(Cl)c(Cl)c2)C(c2ccco2)C(C(=O)Nc2ccc(Cl)c(Cl)c2)=C(C)N1`, the TGI in the test with SW-620 colon stood at 28.3 µM; in the test on OVCAR-3 ovarian, 20.2 µM; with KM12 colon, 27.3 µM; in the test with HT29 colon it was 29.9 µM; in the test on HOP-92 NSCLC, 31.2 µM; with OVCAR-8 ovarian it was 24.3 µM. In addition, the TGI in the test with SF-295 CNS worked out at 20.5 µM; in the test on NCI-H23 lung, 35.2 µM.
With `CC1C=CC(=O)C(n2cc(F)c(=O)[nH]c2=O)O1` (configuration not stated), the TGI in the test on SW-620 colon stood at 36.7 µM; in the test on OVCAR-3 ovarian, 31.2 µM; with LOX IMVI melanoma, 33.6 µM; in the test with HT29 colon, 32.5 µM; with HOP-92 NSCLC, 35.5 µM; in the test on OVCAR-8 ovarian it was 65.4 µM. In the test on NCI-H23 lung, this compound had a TGI of 40.7 µM.
Take `CC1OC(OCC2COC(O)(Oc3c(-c4ccc(O)c(O)c4)oc4cc(O)cc(O)c4c3=O)C(O)C2O)C(O)C(O)C1O` (configuration not stated): the TGI with SW-620 colon, with OVCAR-3 ovarian, with KM12 colon, in the test with LOX IMVI melanoma, with HT29 colon and with HOP-92 NSCLC was greater than 100 µM throughout. Also, the TGI in the test on OVCAR-8 ovarian, in the test on SF-295 CNS and with NCI-H23 lung was greater than 100 µM in each case.
Take `CC12CCC[C@@](C)(C(=O)OC3OC(CO)C(O)C(O)C3O)[C@H]1CCC13CC4CC(OC4(CO)[C@H]1O)[C@@H]23` (some centres not stated): the TGI was 31 µM with SW-620 colon; greater than 100 µM in the test with OVCAR-3 ovarian; greater than 100 µM with KM12 colon; greater than 100 µM with HT29 colon; greater than 100 µM in the test with HOP-92 NSCLC; greater than 100 µM in the test on OVCAR-8 ovarian. In addition, the TGI with SF-295 CNS and with NCI-H23 lung was greater than 100 µM in each case.
As to `O=[N+]([O-])c1nccn1COCCF`, the TGI in the test with SW-620 colon, in the test with OVCAR-3 ovarian, in the test on KM12 colon, in the test with LOX IMVI melanoma, in the test on HT29 colon and with HOP-92 NSCLC was greater than 100 µM throughout. Also, the TGI in the test on OVCAR-8 ovarian, with SF-295 CNS and in the test on NCI-H23 lung was greater than 100 µM throughout.
For `Nc1nc2nc[nH]c2c(=O)[nH]1`, the TGI with SW-620 colon, in the test on OVCAR-3 ovarian, with KM12 colon, in the test with LOX IMVI melanoma, with HT29 colon and in the test on HOP-92 NSCLC was greater than 100 µM throughout. Also, the TGI in the test on OVCAR-8 ovarian, in the test on SF-295 CNS and with NCI-H23 lung was greater than 100 µM throughout.
For the compound `COc1ccc(/C=C2\CCC(C)(CN(C)C)C2=O)cc1` (configuration not stated), the TGI in the test on SW-620 colon, with OVCAR-3 ovarian, in the test on KM12 colon, with LOX IMVI melanoma, in the test on HT29 colon and with HOP-92 NSCLC was greater than 100 µM throughout. The TGI in the test with OVCAR-8 ovarian, in the test with SF-295 CNS and with NCI-H23 lung was greater than 100 µM in each case.
Regarding `O=C(COc1ccccc1)NS(=O)(=O)c1ccccc1`, the TGI with SW-620 colon, in the test with OVCAR-3 ovarian, in the test with KM12 colon, in the test with LOX IMVI melanoma, in the test on HT29 colon and with HOP-92 NSCLC was greater than 100 µM in each case. Besides, the TGI in the test with OVCAR-8 ovarian, in the test with SF-295 CNS and with NCI-H23 lung was greater than 100 µM throughout.
Take `COc1ccc2nc3ccccc3c(NCCCCCCN(C)CCCl)c2c1`: the TGI in the test on SW-620 colon stood at 1.52 µM; in the test with OVCAR-3 ovarian it was 3.12 µM; in the test on KM12 colon, 1.44 µM; in the test with LOX IMVI melanoma, 0.515 µM; in the test with HT29 colon it was 2.38 µM; in the test on HOP-92 NSCLC it was 1.33 µM. The TGI with OVCAR-8 ovarian was 1.81 µM; with SF-295 CNS, 2.88 µM; in the test on NCI-H23 lung it was 1.04 µM.
`CCOC(=O)c1cn(Cc2ccccc2)c(=O)n1Cc1ccccc1`: the TGI in the test with SW-620 colon, in the test with OVCAR-3 ovarian, in the test on KM12 colon, with LOX IMVI melanoma, with HT29 colon and in the test with HOP-92 NSCLC was greater than 100 µM throughout. Also, the TGI with OVCAR-8 ovarian, with SF-295 CNS and in the test on NCI-H23 lung was greater than 100 µM in each case.
With `CCOC(=O)/C(=C/c1ccc(C#N)cc1)N(CC)CC`, the TGI in the test with SW-620 colon, in the test with KM12 colon, in the test with LOX IMVI melanoma, with HT29 colon, with HOP-92 NSCLC and in the test with OVCAR-8 ovarian was greater than 100 µM throughout. Further, the TGI in the test with SF-295 CNS is 30 µM; in the test on NCI-H23 lung, greater than 100 µM.
